Source: patent US11903935B2, “Inhibitors of SARM1 NADase activity and uses thereof” (Washington University, priority 2016, dated 2024)
Where two headings read alike, the source gives them in different places. Values belong to the compound of their own block, whether it stands above or below them.

What was measured:
SARM1 TIR = SARM1 TIR (Homo sapiens (Human), UniProt Q6SZW1); experiment: SARM1 TIR-based assay (bacterially expressed, tagged SARM1 TIR fragment on beads); type: biochemical; details: for Inhibitor: inhibitor of SARM1 TIR NAD cleavage activity; for Substrate: substrate of SARM1 TIR NAD cleavage activity
Chain of SARM1 TIR (Q6SZW1 other isoform, or with tags, fused parts or gaps): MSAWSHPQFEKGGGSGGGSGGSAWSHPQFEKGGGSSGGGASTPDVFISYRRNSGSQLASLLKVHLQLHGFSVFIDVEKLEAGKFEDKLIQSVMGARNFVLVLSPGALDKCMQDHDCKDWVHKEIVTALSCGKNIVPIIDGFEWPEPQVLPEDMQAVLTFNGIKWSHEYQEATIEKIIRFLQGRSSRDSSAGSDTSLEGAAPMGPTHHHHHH
Excerpt: The present Example describes a SARM1 TIR-based Assay. This assay is similar to the assay described in Example 1, but allows for the identification and/or characterization of compounds that directly interact with the TIR domain, whereas the assay described in Example 1 can also identify compounds that disrupt SAM domain interactions. This assay makes use of the bacterial expression of a tagged version of the SARM1 TIR fragment that can be affinity purified. Displaying this artificial SARM1 TIR domain on a solid surface (i.e. affinity beads) generates an active NAD+ cleavage enzyme.
The TIR domain of SARM1 was tagged with a tandem STREP-TAG® at the N-terminus, and a polyhistidine tag at the C-terminus, and was cloned into a pET30a+ plasmid. The construct was then transformed into SHuffle® T7 Express Competent E. coli (New England BioLabs, Ipswich, MA) and single colonies were grown overnight. The next day, cultures were diluted in LB media, grown at 30° C. until they reached A600=0.4-0.8, when IPTG (0.5 mM final concentration) was added. The bacteria were grown for an additional 4 h, pelleted by centrifugation, washed with PBS and stored at −80° C. For protein purification, the frozen bacterial pellet was thawed on ice, resuspended in binding buffer (without protease inhibitors) and incubated with 100 μg/mL lysozyme for 15 min on ice. Protease inhibitor cocktail was then added and the cells were lysed by sonication.
The SARM1 TIR protein was first purified by Strep Tag affinity methods where bacterial lysates were incubated with […] (STREP-TACTIN®, IBA GmBH, Gottingen Germany) type 3 XT beads suspension (IBA Lifesciences) for 30 min. The beads were then washed three times with binding buffer, and bound proteins were eluted from MagStrep type 3 XT beads with 22.5 mM biotin for 25 min. Supernatant containing the eluted protein was separated from MagStrep beads, and incubated with 10 μL Co2+ DYNABEAD® (ThermoFisher Scientific, Waltham, MA) suspension for 30 min to bind SARM1-TIR proteins via the His tag. The beads were then washed at least two times with binding buffer and resuspended in 100 μL of binding buffer for NADase assay.
Ten microliters of purified SARM1-TIR laden beads were incubated with 5 μM NAD+ in reaction buffer (92.4 mM NaCl and 0.64×PBS). Reactions were carried out at 25° C. for the indicated amount of time and stopped by addition of 1M of perchloric acid (HClO4) and placing the tube on ice. NAD+ metabolites were extracted using HClO4/K2CO3 method and quantified by HPLC (see metabolite measurement below). For LC-MS/MS analysis, the extraction was performed using 50% methanol in distilled water and chloroform (see LC-MS/MS metabolite measurement below). […] Select potent inhibitors (622608, 622689) identified from SARM1 SAM-TIR lysate screen were added to the reaction at 5 μM. NAD normalized to control at 0 min.
Metabolites were isolated from enzyme reaction mixture by extracting with 1M HClO4, then neutralized with 3M K2CO3, and followed by separation by centrifugation. The supernatant (90 μL) containing the extracted metabolites was mixed with 0.5M Potassium Phosphate buffer (10 μL) and metabolites were analyzed by HPLC (Nexera X2) with KINETEX® (100×3 mm, 2.6 μm; PHENOMENEX®) column and metabolites are monitored with absorbance at 254 nm. Internal standards for NAD+, Nicotinamide (Nam), ADP Ribose (ADPR) were used to generate standard curves for quantification of the respective compounds. The levels for each compound in each experimental sample was normalized to the 0 min time point that was analyzed concurrently.
These analogs were tested using an assay that makes use of a bacterially-expressed tagged version of the SARM1 TIR fragment, as described in Example 2. Displaying this artificial SARM1 TIR domain on a solid surface (i.e. affinity beads) generates an active NAD+ cleavage enzyme.

human SARM1 SAM-TIR = human SARM1 SAM-TIR (Homo sapiens (Human), UniProt Q6SZW1); experiment: biochemical; details: for ADPR Production (%) / NAD Consumption (%): single point screening at 150 μM
Chain of human SARM1 SAM-TIR (Q6SZW1 other isoform, or with tags, fused parts or gaps): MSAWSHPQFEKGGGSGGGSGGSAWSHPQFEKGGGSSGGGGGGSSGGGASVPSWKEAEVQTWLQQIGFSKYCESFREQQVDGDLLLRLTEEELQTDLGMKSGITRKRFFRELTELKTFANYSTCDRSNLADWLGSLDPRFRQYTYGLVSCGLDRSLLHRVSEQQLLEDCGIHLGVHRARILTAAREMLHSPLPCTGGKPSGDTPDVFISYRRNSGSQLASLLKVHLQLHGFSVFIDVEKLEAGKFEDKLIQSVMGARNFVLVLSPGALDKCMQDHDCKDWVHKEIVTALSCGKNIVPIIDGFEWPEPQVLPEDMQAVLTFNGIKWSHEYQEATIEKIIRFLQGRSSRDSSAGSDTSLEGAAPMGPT
Description: When these NRK1-expressing cells are supplemented with NR, NAD+ levels are augmented and cell viability is enhanced to enable efficient production and purification of the constitutively active human SARM1 SAM-TIR protein fragment. To express SARM1 SAM-TIR, the SARM1 N-terminal auto-inhibitory domain was deleted, keeping only the initiator Met. […] The fragment encoding the SARM1 SAM-TIR protein was cloned into the FCIV expression construct by standard methods to generate the FCIV-SST vector.
NRK1-HEK293T cells were seeded onto 150 cm^2 plates at 20×10^6 cells per plate in 25 mL growth medium comprised of 90% DMEM (Gibco 11965-084) and 10% FBS (Sigma F0926). The next day, cells were transfected by first premixing 15 ug FCIV-SST SST (SAM-TIR expression plasmid from Washington University) with 45 ul X-tremeGENE 9 DNA Transfection Reagent (Roche product #06365787001) and 750 ul OptiMEM (Gibco 31985062) and then adding this mix directly to the cells. […] Forty-eight hours after transfection, cells were harvested, pelleted by centrifugation at 1,000 rpm (Eppendorf Centrifuge 5804R, 15 Amp Version), and washed once with cold PBS (0.01 M phosphate buffered saline NaCl 0.138 M; KCl 0.0027 M; pH 7.4). The cells were resuspended in 0.5 ml PBS with protease inhibitors (Complete protease inhibitor cocktail, Roche product #11873580001). Cell lysates were prepared by sonication (Misonix Microson Ultrasonic Cell Disruptor, output=3, 20 episodes of stroke). The lysates were centrifuged at 12,000×g for 10 min at 4° C. (Eppendorf Centrifuge 5415C) to remove cell debris and the aliquots of supernatant (containing SARM1 SAM-TIR protein) were stored at −80° C. for later use. Protein concentration was determined by the Bicinchoninic (BCA) method and used to normalize lysate concentrations.
Reaction mixtures were prepared on ice by mixing 10 ul of SARM1 SAM-TIR cell lysate (320 fold dilution of lysate 11-3-2016, or 80 fold lysate dilution for assessment of time dependence) in PBS (pH 7.4) with 5 ul of compound stock. Compounds were first dissolved DMSO at 10 mM (final stock concentration). A 10 point compound dilution curve was prepared first with a 20 ul to 40 ul serial dilution in DMSO, followed by a 10 fold dilution (12 ul+108 ul) in PBS.

SARM1 SAM-TIR lysate = SARM1 SAM-TIR lysate (Homo sapiens (Human), UniProt Q6SZW1); experiment: HPLC-based SARM1 SAM-TIR NADase assay 1 (inhibitor screen, NAD+/ADPR ratio); type: biochemical
Description: NRK1-HEK293T cells were seeded onto 150 cm^2 plates at 20×10^6 cells per plate. The next day, the cells were transfected with 15 μg FCIV-SST (SAM-TIR expression plasmid, SEQ ID NO: 9) using X-[…]™ 9 DNA Transfection Reagent (Roche product #06365787001). The cultures were supplemented with 1 mM NR at time of transfection to minimize toxicity from SAM-TIR overexpression. Forty-eight hours after transfection, cells were harvested, pelleted by centrifugation at 1,000 rpm (Sorvall ST 16R centrifuge, Thermo Fisher), and washed once with cold PBS (0.01 M phosphate buffered saline NaCl 0.138 M; KCl 0.0027 M; pH 7.4). The cells were resuspended in PBS with protease inhibitors (cOmplete™ protease inhibitor cocktail, Roche product #11873580001) and cell lysates were prepared by sonication (Branson Sonifer 450, output=3, 20 episodes of stroke). […] Protein concentration was determined by the Bicinchoninic (BCA) method and used to normalize lysate concentrations. […]
Reaction mixtures were prepared on ice by mixing SARM1 SAM-TIR cell lysate (0.14 μg total protein), compound stock (5 μM final concentration), and PBS (pH 7.4) to a final volume of 12 μl. […] The supernatant was transferred and analyzed by HPLC (Shimadzu Nexera X2) with KINETEX® (100×3 mm, 2.6 μm; PHENOMENEX®) column and metabolites were monitored with absorbance at 254 nm.
To identify inhibitors of SARM1 NADase activity, the levels of NAD+ and the enzymatic cleavage product ADPR in the reactions were quantified by HPLC. From these values, the NAD+/ADPR ratio for each compound was calculated and the ratio used as a measure of NAD+ cleavage activity (Note: there is a small residual but detectable ADPR signal in control samples derived from the HEK293 lysate). […]
The NAD+/ADPR ratio was used to determine the NAD+ cleavage activity of the SARM1 SAM-TIR lysate using the HPLC based assay 1. It will be appreciated that any precise, quantitative method of measuring NAD+ levels could be used for the detection of SARM1 NADase activity. […]

[1] = 10 point curve 0.01-250 uM, read-out: IC50 (μM, ADPR Production)
[2] = 10 point curve 0.01-250 uM, read-out: IC50 (μM, NAD Consumption)
[3] = NAD consumption, 7 point curve 0-about 6 uM, read-out: IC50

Inhibitor (SARM1 TIR): No
Substrate (SARM1 TIR): No
Structure (SMILES): CC(=O)c1cccnc1 [3-acetylpyridine]

Structure (SMILES): NC(=O)c1ccc(N)nc1 [6-aminonicotinamide]
Inhibitor (SARM1 TIR): No
Substrate (SARM1 TIR): No

Structure (SMILES): NC(=O)c1ccccc1 [Benzamide]
Inhibitor (SARM1 TIR): No
Substrate (SARM1 TIR): No

Structure (SMILES): CN(C)c1nc(=Nc2cccc(Cl)c2)ss1 [Compound 622689]
inhibition of NADase activity of purified SARM1 TIR (SARM1 TIR; compound at 5 μM, 5 μM NAD+): inhibit NADase activity of purified SARM1 TIR

Substrate (SARM1 TIR): No
Structure (SMILES): NC(=O)C1CCCc2c1[nH]c1ccc(Cl)cc21 (stereo not shown) [Ex-527]

Structure (SMILES): Cc1c(OCC(F)(F)F)ccnc1C[S+]([O-])c1nc2ccccc2[nH]1 (stereo not shown) [I^A-2, lansoprazole]
IC50 (human SARM1 SAM-TIR; [1]): 3.3 µM
IC50 (human SARM1 SAM-TIR; [2]): 3.5 µM

Structure (SMILES): COCCCOc1ccnc(C[S+]([O-])c2nc3ccccc3[nH]2)c1C (stereo not shown) [I^A-6, rabeprazole]
inhibition at 10 µM (SARM1 SAM-TIR lysate; at 10 μM, 5 μM NAD): 95%
inhibition at 30 µM (SARM1 SAM-TIR lysate; at 30 μM, 5 μM NAD): 98.8%
IC50 (human SARM1 SAM-TIR; [1]): 3.2 µM
IC50 (human SARM1 SAM-TIR; [2]): 3.3 µM

Structure (SMILES): COc1ccc2[nH]c([S+]([O-])Cc3ncc(C)c(OC)c3C)nc2n1 (stereo not shown) [I^A-8, tenatoprazole]
identified as SARM1 NADase inhibitor in initial screening (SARM1 SAM-TIR lysate): SARM1 NADase inhibitors
IC50 (human SARM1 SAM-TIR; [1]): 8.7 µM
IC50 (human SARM1 SAM-TIR; [2]): 7.4 µM
ADPR Production (%) (human SARM1 SAM-TIR): C (“C” indicating <50%)
NAD Consumption (%) (human SARM1 SAM-TIR): B (“B” indicating between 50%-75%)

Structure (SMILES): Cc1c(OCC(F)(F)F)ccnc1CSc1nc2ccccc2[nH]1 [I^A-9, lansoprazole sulfide]
ADPR Production (%) (human SARM1 SAM-TIR): A (“A” indicating >75%)
NAD Consumption (%) (human SARM1 SAM-TIR): A (“A” indicating >75%)

Structure (SMILES): Cc1c(OCC(F)(F)F)ccnc1CS(=O)(=O)c1nc2ccccc2[nH]1 [I^A-10, lansoprazole sulfone]
ADPR Production (%) (human SARM1 SAM-TIR): A (“A” indicating >75%)
NAD Consumption (%) (human SARM1 SAM-TIR): A (“A” indicating >75%)

Structure (SMILES): COc1ccc2c(c1)nc([S+]([O-])Cc1ncc(C)c(OC)c1C)n2C (stereo not shown) [I^A-11, N-methyl omeprazole]
ADPR Production (%) (human SARM1 SAM-TIR): A (“A” indicating >75%)
NAD Consumption (%) (human SARM1 SAM-TIR): A (“A” indicating >75%)

Structure (SMILES): COc1ccc2[n-]c([S+]([O-])Cc3ncc(C)c(OC)c3C)nc2c1.[Na+] (stereo not shown) [I^A-13, sodium esomeprazole]
ADPR Production (%) (human SARM1 SAM-TIR): B (“B” indicating between 50%-75%)
NAD Consumption (%) (human SARM1 SAM-TIR): A (“A” indicating >75%)

IC50 (human SARM1 SAM-TIR; [3]): ~0.7 µM
Structure (SMILES): CN(C)c1n/c(=N/c2cccc(Cl)c2)ss1 [I^B-1]

Structure (SMILES): CN(C)c1n/c(=N/Cc2ccco2)ss1 [I^B-2]
IC50 (human SARM1 SAM-TIR; [3]): ~0.15 µM

Inhibitor (SARM1 TIR): No
Substrate (SARM1 TIR): No
Structure (SMILES): O=Cc1cccnc1 [Nicotinaldehyde]

Structure (SMILES): NC(=O)c1ccc[n+]([C@@H]2O[C@H](COP(=O)([O-])OP(=O)(O)OC[C@H]3O[C@@H](n4cnc5c4ncn4ccnc54)[C@H](O)[C@@H]3O)[C@@H](O)[C@H]2O)c1 [Nicotinamide 1, N6-ethenoadenine dinucleotide]
Substrate (SARM1 TIR): No

Structure (SMILES): NC(=O)c1ccc[n+](C2OC(COP(=O)(O)OP(=O)(O)OCC3OC(n4cnc5c(=O)[nH]cnc54)C(O)C3O)C(O)C2O)c1 (stereo not shown) [Nicotinamide Hypoxanthine dinucleotide]
Inhibitor (SARM1 TIR): inhibitor and Yes
Substrate (SARM1 TIR): substrate and Yes

Structure (SMILES): NC(=O)C1=CN([C@@H]2O[C@H](COP(=O)(O)OP(=O)(O)OC[C@H]3O[C@@H](n4cnc5c(N)ncnc54)[C@H](OP(=O)(O)O)[C@@H]3O)[C@@H](O)[C@H]2O)C=CC1 [Nicotinamide adenine dinucleotide 2′-phosphate, reduced]
Inhibitor (SARM1 TIR): Unclear

Inhibitor (SARM1 TIR): No
Substrate (SARM1 TIR): No
Structure (SMILES): NC(=S)c1cccnc1 [Thionicotinamide]
